For three compounds, IC50 results are on record in patent US8367695B2, “Condensed tetrahydroquinoline derivative and use thereof for medical purposes” (Mitsubishi Tanabe Pharma Corporation, priority 2007, dated 2013).

This test deals with T1, Glucocorticoid Receptor (GR), CHO-GRE-Luc #35 cells (Cricetulus griseus, UniProt A0A9J7F8I2).
T1 sequence (A0A9J7F8I2 1-774): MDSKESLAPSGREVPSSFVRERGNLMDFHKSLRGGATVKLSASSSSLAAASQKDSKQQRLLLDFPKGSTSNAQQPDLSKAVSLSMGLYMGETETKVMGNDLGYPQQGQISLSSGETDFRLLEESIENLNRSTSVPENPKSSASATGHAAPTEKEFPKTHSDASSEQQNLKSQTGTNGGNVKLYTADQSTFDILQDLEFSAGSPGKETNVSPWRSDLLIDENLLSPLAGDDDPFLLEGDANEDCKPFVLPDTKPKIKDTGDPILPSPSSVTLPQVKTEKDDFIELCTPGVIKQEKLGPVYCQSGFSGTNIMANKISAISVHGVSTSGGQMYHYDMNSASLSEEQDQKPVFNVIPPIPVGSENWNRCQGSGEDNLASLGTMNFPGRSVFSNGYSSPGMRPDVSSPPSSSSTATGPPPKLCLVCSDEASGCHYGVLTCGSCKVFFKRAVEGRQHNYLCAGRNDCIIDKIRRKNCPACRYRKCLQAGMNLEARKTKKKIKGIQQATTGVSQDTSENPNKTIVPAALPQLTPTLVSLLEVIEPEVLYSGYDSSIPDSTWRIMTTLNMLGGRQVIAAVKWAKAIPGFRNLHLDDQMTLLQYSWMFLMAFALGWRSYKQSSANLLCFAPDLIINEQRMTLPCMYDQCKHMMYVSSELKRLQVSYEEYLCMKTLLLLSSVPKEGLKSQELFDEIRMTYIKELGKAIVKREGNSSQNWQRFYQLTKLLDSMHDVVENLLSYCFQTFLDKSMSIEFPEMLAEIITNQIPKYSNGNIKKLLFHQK
The test is described as follows: Glucocorticoid receptor function test using transgenic-recombinant cell (GRE-luciferase). The conditions noted are these: against GR stimulation with 10 nM dexamethasone, luciferase, about 6 hr; read-out: GR (IC50: nM). It is filed as cell-based. How it is done:
Glucocorticoid Receptor Function Test Using Transgenic-Recombinant Cell
Transgenic-recombinant cell was prepared by our company (Yokohama, JP). In Hokkaido System Science Co., Ltd., a cis-element wherein two glucocorticoid responsive elements (GRE) present in the […] promoter region of mouse were connected in tandem was produced on order from synthetic DNA. The gene was incorporated into a plasmid vector having a gene encoding luciferase enzyme. The plasmid was incorporated into CHO-K1 cell to give a transfectant. The expression cell (CHO-GRE-Luc #35) produces luciferase instead of the object protein under regulation of a transcription region involved in the expression of the object protein. That is, using the cell, a substance that controls production of the object protein can be screened for by replacing the substance with the luciferase activity. Fetal Bovine Serum (FBS), L-glutamine, penicillin-streptomycin solution, PBS(−), trypsin-EDTA solution, Opti-MEM medium and G418 were obtained from GIBCO (Auckland, N.Z.). A 10 cm dish and DMEM:HAM′S F12 medium were obtained from IWAKI (Chiba, JP). A 96 well white plate was obtained from Corning (Corning, N.Y.). Bright-Glo was obtained from Promega (Madison, US). Dexamethasone was obtained from Sigma Chemicals (St. Louis, Mo.).
CHO-GRE-Luc #35 cells were cultured for several days in a 10 cm dish in a medium (10% FBS/DMEM:HAM'S F12/2.5 mM L-glutamine/50 U/mL penicillin/25 μg/mL streptomycin/500 μg/mL G418). Sub-confluent cells were washed with a suitable amount of PBS(−), 1 ml of Trypsin-EDTA was added and the cells were stood still in a CO2 incubator at 37° C. for 3 min. A 10-fold amount of Opti-MEM medium was added to give a suspension, which was placed in a centrifugal tube and centrifuged (25° C., 1,000 rpm, 5 min). The supernatant was removed, and the cells were suspended in 5 ml of Opti-MEM medium and counted.
Storage solutions (5-20 mM) of the compound were prepared with DMSO. The storage solutions were diluted with DMSO to 1 mM, and further diluted 100-fold with distilled water or Opti-MEM medium to give solutions. The preparations were diluted with 1% DMSO solution to each concentration. As GR agonist, 10 nM dexamethasone was used. 0.2% DMSO was present at the time of the function assay.
The prepared compound solutions (evaluation compound solution or 1% DMSO solution 10 μL+dexamethasone or 1% DMSO solution 10 μL) were added to the plate. After the addition, the place was stood still in a CO2 incubator at 37° C. for about 6 hr. After the reaction, Bright-Glo was added at 20 μL/well, and the mixture was gently shaken and measured by a microplate luminometer (Turner Designs Instrument).
The IC50 value (nM) of the evaluation compound against GR stimulation with dexamethasone was calculated using Prism 3.0 as an analysis software and assuming one-site competition.

In general, IC50 refers to the concentration that inhibits the measured activity by half. In the case of `CC1(C)Nc2c(cc(-c3cccc4ncccc34)c3occc23)C(C)(C)C1=O` [Example 101, 2,2,4,4-tetramethyl-6-(quinolin-5-yl)-1,2,3,4-tetrahydro-furo [2,3-h]quinolin-3-one], the IC50 came out at 37 nM.
The value for `CC1(C)Nc2c(cc(-c3ccnc4ncccc34)c3occc23)C(C)(C)C1=O` [Example 102, 2,2,4,4-tetramethyl-6-([1,8]naphthyridin-4-yl)-1,2,3,4-tetrahydro-furo[2,3-h]quinolin-3-one] was 35 nM.
On to `Cc1noc(C)c1-c1cc2c(c3c1C(=O)CC3)NC(C)(C)C(=O)C2(C)C` [Example 104, 6-(3,5-dimethylisoxazol-4-yl)-2,2,4,4-tetramethyl-2,3,4,7,8,9-hexahydro-1H-cyclopenta[h]quinoline-3,7-dione], for which the concentration for half-maximal inhibition (IC50) was 128 nM.
